{
  "source": "patent US4968672A",
  "about": "“Adenosine receptor prodrugs” (priority 1987, dated 1990)",
  "key": {"[1]": {"tested_on": "renin release", "experiment": "renin release by the kidney", "format": "in vivo"}, "[2]": {"tested_on": "adenosine receptors", "experiment": "adenosine agonist activity"}, "[3]": {"tested_on": "blood brain barrier / central nervous system", "experiment": "brain entry / central side effects"}, "[4]": {"tested_on": "acute renal failure", "experiment": "acute renal failure models (ischemia, glycerol injection)", "format": "in vivo", "conditions": "compared with theophylline and 8-phenyltheophylline"}, "[5]": {"tested_on": "adenosine receptors (kidney and non-renal vasculature)", "experiment": "blood pressure and sodium excretion in CHA-treated rats (Table 4)", "format": "in vivo, rat", "experimental": "^1 CHA = N^6 -cyclohexyladenosine administered as a constant\ninfusion of 10 nanmoles/min./kg. Total dose administered over 45 min. was\napproximately […] (= relatively high dose).\n^2 Xanthine antagonists were administered in a bolus injection of 0.2\numoles/kg followed by an infusion of 2 nanamoles per kg/min."}, "[6]": {"tested_on": "adenosine receptors (glomerular filtration rate)", "experiment": "glomerular filtration rate after N6-cyclohexyladenosine in rats", "format": "in vivo, rat"}, "[7]": {"target": "T1, A1 adenosine receptors (Rattus norvegicus, UniProt P25099)", "T1 construct": "rat cerebral cortex membranes; from tissue; host or cells: rat cerebral cortex membranes", "T1 sequence (P25099 1-326)": "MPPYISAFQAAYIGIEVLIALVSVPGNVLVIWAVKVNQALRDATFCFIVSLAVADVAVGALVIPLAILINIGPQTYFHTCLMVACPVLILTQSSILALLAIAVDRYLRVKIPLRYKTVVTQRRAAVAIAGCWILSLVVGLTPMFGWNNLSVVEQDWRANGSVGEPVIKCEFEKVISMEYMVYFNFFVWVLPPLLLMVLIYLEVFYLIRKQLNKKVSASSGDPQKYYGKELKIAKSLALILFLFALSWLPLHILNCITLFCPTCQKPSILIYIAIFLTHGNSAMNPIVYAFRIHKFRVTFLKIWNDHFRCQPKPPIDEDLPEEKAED", "experiment": "membrane binding assay at A1 adenosine receptors (Tables 1 and 2)", "excerpt": "Table 2 lists prodrugs (including Routes A and B of FIG. 2) and chemical intermediates, based on xanthine and adenosine functionalized congener and the method of synthesis. The potency of each compound at A1 adenosine receptors is indicated by the Ki (inverse relationship to potency) in a membrane binding assay."}, "[8]": {"experiment": "solubility", "format": "physicochemical"}, "[9]": {"target": "T2, A2 receptor (Homo sapiens, UniProt P29274)", "T2 construct": "human platetlet membranes; from tissue; host or cells: human platelet membranes", "T2 sequence (P29274 whole entry)": "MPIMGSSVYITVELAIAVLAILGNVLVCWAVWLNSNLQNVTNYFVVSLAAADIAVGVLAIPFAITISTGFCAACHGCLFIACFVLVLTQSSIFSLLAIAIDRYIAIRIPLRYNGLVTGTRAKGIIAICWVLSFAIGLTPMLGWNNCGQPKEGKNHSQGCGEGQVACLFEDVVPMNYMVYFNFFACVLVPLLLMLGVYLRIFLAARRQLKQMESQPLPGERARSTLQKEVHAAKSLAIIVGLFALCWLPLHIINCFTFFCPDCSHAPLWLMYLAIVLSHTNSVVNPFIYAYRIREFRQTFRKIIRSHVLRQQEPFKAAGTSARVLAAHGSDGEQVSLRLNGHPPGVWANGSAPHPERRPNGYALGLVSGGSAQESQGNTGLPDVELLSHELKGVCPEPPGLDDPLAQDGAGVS", "experiment": "antagonism of NECA-induced stimulation of adenylate cyclase activity in human platelet membranes", "format": "biochemical", "conditions": "antagonism of NECA-stimulated adenylate cyclase, human platelet membranes; means with 95% confidence limits from 3 experiments; read-out: A2 receptor KB", "experimental": "Measurements of the potencies of the xanthines as antagonists of NECA-induced stimulation of adenylate cyclase activity in human platetlet membranes and as inhibitors of [^3 H]PIA binding to rat cerebral cortex membranes were carried out as reported previously."}, "[10]": {"experiment": "stability to enzymatic hydrolysis", "format": "in vitro ADME"}, "[11]": {"tested_on": "A2 adenosine receptors", "experiment": "reversal of 2-chloroadenosine-stimulated cyclic AMP production in guinea pig brain slices", "format": "cell-based", "conditions": "amino acid conjugates of 1a", "excerpt": "[…]. As modifications of these xanthines designed to increases A2 -potency we have explored changing the size of the 1,3-dialkyl groups and incorporating distal amino groups in the functionalized 8-phenyl moiety."}, "[12]": {"tested_on": "A1-receptors", "conditions": "cited from earlier work"}, "[13]": {"conditions": "CHA infusion 10 nmol/min/kg, antagonists 0.2 umoles/kg bolus then 2 nmol/kg/min"}},
  "note": "Like-named read-outs stand apart in the source and are kept apart here.",
  "data": [
    {"smiles": "NCCNC(=O)Cc1ccc(NC(=O)Cc2ccc(Nc3ncnc4c3ncn4[C@@H]3O[C@H](CO)[C@@H](O)[C@H]3O)cc2)cc1", "note": "[Compound 1b]", "values": [
      {"measurement": "renin release by the kidney", "setting": "[1]", "result": "a decrease in renin release by the kidney"},
      {"measurement": "adenosine agonist potency in vitro and in vivo", "setting": "[2]", "result": "highly potent as an adenosine agonist in vitro and in vivo"},
      {"measurement": "entry into the brain / passage across the blood brain barrier", "setting": "[3]", "result": "excluded from passage across the blood brain barrier"}
    ]},
    {"smiles": "CCCn1c(=O)c2[nH]c(-c3ccc(OCC(=O)NCCNC(=O)CC[C@H](NC(C)=O)C(=O)O)cc3)nc2n(CCC)c1=O", "note": "[Compound 17, N-Acetyl-glutamic acid (gamma XAC)]", "values": [
      {"measurement": "effect in acute renal failure", "setting": "[4]", "result": "act in the same manner except for considerably greater potency and selectivity"},
      {"measurement": "central side effects", "setting": "[3]", "result": "side effects of the xanthine acting as a central stimulant are not observed"},
      {"measurement": "entry into the brain / passage across the blood brain barrier", "setting": "[3]", "result": "entry into the brain is impeded"},
      {"measurement": "reversal of hypotensive effect of adenosine agonists (non-renal vasculature)", "setting": "[5]", "result": "not by the prodrug, 17"},
      {"measurement": "Sodium excretion", "setting": "[5]; [13]", "result": "2.12 ± 0.36", "unit": "uEq/min/kg"},
      {"measurement": "b.p.", "setting": "[5]; [13]", "result": "103.5 ± 3.5", "unit": "mmHg"},
      {"measurement": "reversal of the effect of the adenosine agonist on glomerular filtration rate", "setting": "[6]; XAC I.V. 5-50 ug/kg", "result": "even greater return of glomerular filtration rate than did XAC"},
      {"measurement": "% of normal glomerular filtration rate (after)", "setting": "[6]; dose 10 × low, after xanthine, CHA-treated rats", "result": 84.8, "unit": "%"},
      {"measurement": "% of normal glomerular filtration rate (before)", "setting": "[6]; dose 10 × low, before xanthine, CHA-treated rats", "result": 48, "unit": "%"},
      {"measurement": "Ki", "setting": "[7]; Table 1, prodrug before cleavage, read-out: Ki(nM) at A1 Before Cleavage", "result": 240, "unit": "nM"},
      {"measurement": "Ki", "setting": "[7]; Table 2, read-out: Ki (A1(nM))", "result": 240, "unit": "nM"}
    ]},
    {"smiles": "CCCn1c(=O)c2[nH]c(-c3ccc(OCC(=O)NCCNC(=O)[C@H](N)CCCCN)cc3)nc2n(CCC)c1=O", "note": "[Compound 61c]", "values": [
      {"measurement": "water solubility", "setting": "[8]", "result": "high water solubility"},
      {"measurement": "Kb", "setting": "[9]", "result": 37, "unit": "nM"},
      {"measurement": "stability to enzymatic hydrolysis", "setting": "[10]", "result": "stability to enzymatic hydrolysis"},
      {"measurement": "potency", "setting": "[11]", "result": "high potency"}
    ]},
    {"smiles": "CCCn1c(=O)c2[nH]c(-c3ccc(OCC(=O)NCCN)cc3)nc2n(CCC)c1=O", "note": "[[^3 H]XAC]", "values": [
      {"measurement": "affinity compared with [3H]DPX", "setting": "[12]", "result": "higher affinity"}
    ]}
  ]
}
